Earlier results as cited in US20040053283A1, “Gene 4” (priority 2000, published 2004).

Experiments:
[1] = system: tissue culture model of cerebral ischemia
[2] = system: rat stroke model (middle ear cerebral artery occlusion); settings: in vivo

**Q.** With `O=C(O)CCC(CP(=O)(O)O)C(=O)O` (stereo not shown) [2-PNPA, 2-(phosphonomethyl)pentanedioic acid] as the molecule, how does the “protection from cellular injury” value ([1]; 10 μM, tissue culture model of cerebral ischemia) read?
**A.** 85%

**Q.** What about the protective effect ([1]; even one hour after the ischemia) of the same molecule?
**A.** significant

**Q.** And the neuronal protection ([2]; rat stroke model (middle ear cerebral artery occlusion))?
**A.** high degree of neuronal protection

**Q.** What about the tolerability ([2]; rat stroke model, at levels that produced a high degree of neuronal protection) of the same molecule?
**A.** well tolerated
